System: healthy donor PBMCs
Experiment: IFNγ ELISpot assay with peptide-stimulated healthy donor PBMCs
Type: cell-based, human
Conditions: for ELISpot result (positive response) for peptides tested with ELISpot: healthy donor PBMCs
Method: FIG. 10A-D. In vitro validation of predicted neoAgs immunogenicity using ELISpot IFNy assay. A) Schematic of peptide pool, stimulation, and cell culture workflow for ELISpot assays. PBMCs were exposed with the individual peptides from the immunogenic pools in the presence of IL-7 for 3 d, followed by expansion of neoAg-specific T cells in the presence of IL-2. On day 13, expanded cells (10^5 cells per well) were plated onto 96-well ELISpot plate coated with an IFNγ antibody and re-stimulated with the respective peptide for 24 h. IFNy secreting cells were analyzed as spot-forming units (SFUs), and the inventors chose ≥15 SFU produced by peptide stimulated cells over DMSO control cells as an indicator of the peptide immunogenicity. B) Quantification of IFNγ-secreting cells (SFU) obtained from ELISpot assay of 12 neoAg-stimulated PBMCs. ConcA and DMSO served as positive and negative controls. […] C) Selection of 110 predicted MHC-I neoAgs from 3 different categories and percentage of immunogenicity in vitro validation. […] “Most Immunogenic” refers to neoAgs selected from the top 100 prediction list of Most Immunogenic MHC-I neoAgs. “Most recurrent” refers to neoAgs selected from the top 100 prediction list of Most Recurrent MHC-I neoAgs. “Others” refers neoAgs that were predicted to have low immunogenicity and no recurrency. A total of 44 MHC-II neoAgs from 2 different categories were tested. […] “Most Immunogenic” refers to neoAgs selected from the top 100 prediction list of Most Immunogenic MHC-II neoAgs. “Most recurrent” refers to neoAgs selected from the top 100 prediction list of Most Recurrent MHC-II neoAgs. D) pMHC-pentamer staining. Expanded Pan-T cells from the healthy human donor were isolated and stained with WDTC1 neoAg peptide/A*02:01 Pentameric complexes and PerCP-conjugated CD8 antibody followed by flow cytometry analysis. Pan T-cells from healthy human donor PBMC (HLA-A*02:01) were isolated using negative magnetic selection. Isolated Pan T cells were stimulated and expanded with Opto-antigen presenting beads conjugated with WDTC1 neoAg-peptide. Viable Pan-T cells were gated based on FSC and SSC scatter and SYTOX Blue dead cells staining after doublet-exclusion. Flow cytometric plots representing CD8 positive (x-axis) and PE-biotin-pMHC-pentamer positive (y-axis) cells; unstained, unstimulated, and WDTC1 Opto-antigen presenting beads stimulated cells (left to right). The percentage of live CD8+ cells and CD8/WDTC1 neoAg-loaded MHC pentamer positive cells are shown.
FIG. 19A-B. In vitro validation of the pooled predicted neoAgs immunogenicity using ELISpot IFNγ assay. A) Schematic of peptide pool, stimulation, and cell culture workflow for ELISpot assays. All 154 peptides were grouped into 15 peptide pools to stimulate PBMCs from 3 healthy human donors as shown in the illustrations. IFNy secreting cells were analyzed as spot-forming units (SFUs), indicative of immunogenicity. B) Quantification of IFNγ-secreting cells (SFU) obtained from ELISpot assay. Pools 2, 3, 5, 6, 9, and 12 produced at least 15 or higher SFU/10^5 cells from two different PBMCs. […] ConcA and DMSO served as positive and negative controls.
Healthy donor PBMCs were stimulated with 15 peptide pools (Supplementary Table 13) to expand the neoAg-specific CD8^+ T-cells followed by quantitative ELISpot assays (FIG. 19A) to measure immunogenicity. […] To ascertain the immunogenicity of individual peptides within each immunogenic pool. a deconvolution protocol (see Methods) was implemented (FIG. 10A). […] Three percent of MHC-I neoAgs not predicted to be highly immunogenic or recurrent (Others). 5% of the top 100 most immunogenic MHC-II predicted neoags, and 6% of the top 100 most recurrent MHC-II predicted neoags elicited an immunogenic response as assessed by ELISpot assays. Additionally. 18% of all of these elispot-reactive neoags were also predicted from the validation set (FIG. 9C). […]

[1] = IFNγ ELISpot, only peptides marked Tested
[2] = IFNγ ELISpot, peptides marked Tested
[3] = IFNγ ELISpot, peptide-stimulated healthy donor PBMCs

Q: With 112 (FLALNQLPQV) [compound 112] as the substance, how does the “ELISPOT positive” value (only neoAgs marked Tested with ELISPOT) read?
A: No

Q: Which Elispot reactive [1] does the source give for 218 (RWMVLRNSWRAVARM) [compound 218] here?
A: No

Q: How did the Elispot reactive [1] turn out when 219 (IDNIKRNHNLALGRQ) [compound 219] was run?
A: No

Q: For 220 (PKMQVTITLTSPIIR) [compound 220], which Elispot reactive [1] is on record?
A: No

Q: 222 (KTGLQLLRNHIEELK) [compound 222] was tested. Which Elispot reactive [1] did it give?
A: No

Q: For 223 (QKKLMLLRLNLRKMC) [compound 223], which “ELISpot result (positive response) for peptides tested with ELISpot” value (“ELISpot result (positive response)” below) (IFNγ ELISpot) is on record?
A: No

Q: What about the Elispot reactive [1] of the same substance?
A: No

Q: With 224 (LINIHHRKNPLLPMR) [compound 224] as the substance, how does the Elispot reactive [1] read?
A: No

Q: Which Elispot reactive [1] does the source give for 227 (EDIEFHFSLGWTMLV) [compound 227] here?
A: No

Q: For 229 (PALLLAEATHKASAL) [compound 229], which Elispot reactive [1] is on record?
A: No

Q: What about the Elispot reactive [2] of the same substance?
A: No

Q: Which Elispot reactive [1] does the source give for 230 (SLDNVLRTMLRRFAR) [compound 230] here?
A: No

Q: For 231 (YLRFIKSLAERTMSV) [compound 231], which Elispot reactive [1] is on record?
A: No

Q: Which Elispot reactive [1] does the source give for 233 (RHVIKVLLGRKVNWH) [compound 233] here?
A: No

Q: And the Elispot reactive [2]?
A: No

Q: For 234 (QLARFFPITPPVWHI) [compound 234], which Elispot reactive [1] is on record?
A: No

Q: And the Elispot reactive [2]?
A: No

Q: 236 (FEEIIKNDGALLKKK) [compound 236] was tested. Which Elispot reactive [1] did it give?
A: No

Q: Which Elispot reactive [1] does the source give for 238 (TKFITYRSKKLIQES) [compound 238] here?
A: No

Q: How did the Elispot reactive [1] turn out when 239 (LEVMLLNMGYRITGL) [compound 239] was run?
A: No

Q: What about the Elispot reactive [2] of the same substance?
A: No

Q: What does the source list for 240 (SINVLCVRASLIEKL) [compound 240]?
A: ELISpot result (positive response) for peptides tested with ELISpot (IFNγ ELISpot): No; Elispot reactive [1]: No

Q: With 250 (TVEMRRWWTLVMEWK) [compound 250] as the substance, how does the Elispot reactive [2] read?
A: No

Q: How did the “ELISpot result (positive response)” value (IFNγ ELISpot) turn out when 290 (ANRYFSPNFKVKLYF) [compound 290] was run?
A: No

Q: How did the Elispot reactive [2] turn out when 311 (KSLVRLSSCVPVALM) [compound 311] was run?
A: No

Q: And the “ELISpot result (positive yes/no)” value (peptides marked Tested with ELISpot)?
A: No

Q: How did the Elispot reactive [2] turn out when 318 (LRGGVIQSTRRRRRA) [compound 318] was run?
A: No

Q: With 319 (PCASLLSTLSQPPPQ) [compound 319] as the substance, how does the Elispot reactive [2] read?
A: No

Q: With 320 (EDMQEVVVHKKRGLF) [compound 320] as the substance, how does the Elispot reactive [2] read?
A: No

Q: Which Elispot reactive [2] does the source give for 321 (RFPLLMMWRTPMTTR) [compound 321] here?
A: No

Q: With 322 (PVLFKADQSESSLSS) [compound 322] as the substance, how does the Elispot reactive [2] read?
A: No

Q: Which Elispot reactive [2] does the source give for 324 (FGILNVLEFSSDRKK) [compound 324] here?
A: No

Q: With 325 (ILVALSWMGGLHSFY) [compound 325] as the substance, how does the Elispot reactive [2] read?
A: No

Q: With 328 (LLHWRIGGGTPLSIS) [compound 328] as the substance, how does the Elispot reactive [2] read?
A: No

Q: How did the Elispot reactive [2] turn out when 329 (EIQLTMNDSKHKLES) [compound 329] was run?
A: No

Q: Which Elispot reactive [2] does the source give for 332 (GVRILKLCSKVSFRV) [compound 332] here?
A: No

Q: How did the Elispot reactive [2] turn out when 334 (ALGLRILPPPLTSPS) [compound 334] was run?
A: No

Q: How did the Elispot reactive [2] turn out when 335 (KKSVLKAIEQADLLQ) [compound 335] was run?
A: No

Q: Which Elispot reactive [2] does the source give for 336 (KEALFLQEVFQAERL) [compound 336] here?
A: No

Q: With 354 (PVTPLRVQSVLLLGV) [compound 354] as the substance, how does the “ELISpot result (positive response)” value (IFNγ ELISpot) read?
A: No

Q: Which Elispot reactive (IFNγ ELISpot, only peptides marked Elispot tested = Yes) does the source give for 507 (VVHKKRGL) [compound 507] here?
A: No

Q: For AGIGWGASY, which Elispot reactive (IFNγ ELISpot, peptide-stimulated healthy donor PBMCs, peptides grouped in 15 pools) is on record?
A: yes

Q: With AGIGWGASY [compound 160] as the substance, how does the “ELISPOT result (positive Yes/No) for peptides marked Tested” value [3] read?
A: Yes

Q: And the Elispot reactive (IFNγ secretion in healthy donor PBMCs vs unexposed control cells)?
A: Yes

Q: AMAENILAA [compound 150] was tested. Which “ELISPOT result (positive Yes/No) for peptides marked Tested” value [3] did it give?
A: No

Q: How did the Elispot reactive [1] turn out when APREGAAATPL [compound 18] was run?
A: No

Q: How did the Elispot reactive (IFNγ ELISpot, peptide tested) turn out when APSLTPMHSL [compound 209] was run?
A: No

— patent US20240218019A1, “METHODS AND COMPOSITIONS COMPRISING MHC CLASS I PEPTIDES” (BOARD OF REGENTS, THE UNIVERSITY OF TEXAS SYSTEM, priority 2021, published 2024)
